Like-named read-outs stand apart in the source and are kept apart here.
Tested on: HCV replicon in Huh-7 cells
Assay: HCV replicon assay (NPT ELISA) for inhibition of HCV replication
Assay type: cell-based
Conditions: Hepatitis C virus, Huh-7, 72 h, HCV replicon-containing Huh-7 cells, three days incubation
Protocol: Compounds claimed herein are tested for the ability to inhibit viral replication of the Hepatitis C replicon in cultured cells in which the HCV replicon construct has been incorporated. The HCV replicon system was described by Bartenschlager, et. al (Science, 285, pp. 110-113 (1999)). The replicon system is predictive of in vivo anti-HCV activity; compounds that are active in humans uniformly evidence activity in the replicon assay.
In this assay HCV replicon containing cells are treated with different concentrations of the test compound to ascertain the ability of the test compound to suppress replication of the HCV replicon. As a positive control, HCV replicon-containing cells are treated with different concentrations of interferon alpha, a known inhibitor of HCV replication. The replicon assay system includes Neomycin Phosphotransferase (NPT) as a component of the replicon itself in order to detect the transcription of replicon gene products in the host cell. Cells in which the HCV replicon is actively replicating have high levels of NPT; the level of NPT is proportional to HCV replication. […] The NPT level of each sample is measured using a captured ELISA.
A protocol for testing compounds for the ability to inhibit viral replication of the Hepatitis C replicon cultured cells in which the replicon construct has been incorporated, follows.
The HCV replicon contains, 5′-3′, the HCV-IRES, the neomycin phosphotransferase (neo) gene, the IRES of encephalomyocarditis virus, which directs translation of HCV sequences NS3 to NS5B, and the 3′-NTR. The sequence of the HCV replicon has been deposited in GenBank (Accession no. AJ242652).
The replicon is transfected into Huh-7 cells using standard methods such as electroporation.
The equipment and materials include, but are not limited to, Huh-7 HCV replicon-containing cells, maintenance media (DMEM (Dulbecco's modified Eagle media) supplemented with 10% FBS, L-glutamine, non-essential amino acids, penicillin (100 units/ml), streptomycin (100 micrograms/ml), and 500 micrograms/ml of Geneticin (G418), screening media (DMEM supplemented with 10% FBS, L-glutamine, non-essential amino acids, penicillin (100 units/ml) and streptomycin (100 micrograms/ml)), 96 well tissue culture plates (flat bottom), 96 well plates (U bottom for drug dilution), Interferon alpha for positive control, fixation reagent (such as methanol:acetone), primary antibody (rabbit anti-NPTII), secondary antibody: Eu-N11, and enhancement solution.
HCV replicon-containing cells support high levels of viral RNA replicon replication when their density is suitable. Over-confluency causes decreased viral RNA replication. Therefore, cells must be kept growing in log phase in the presence of 500 micrograms/ml of G418. Generally, cells should be passed twice a week at 1: 4-6 dilution. Cell maintenance is conducted as follows:
HCV replicon-containing cells are examined under a microscope to ensure that cells growing well. Cells are rinsed once with PBS and 2 ml trypsin is added. The cell/trypsin mixture is incubated at 37° C. in a CO2 incubator for 3-5 minutes. After incubation 10 ml of complete media is added to stop the trypsinization reaction. Cells are blown gently, put into a 15 ml tube, and spun at 1200 rpm for 4 minutes. The trypsin/medium solution is removed. Medium (5 ml) is added and the cells are mixed carefully. The cells are counted.
The cells are then seeded onto 96-well plates at a density of 6000-7500 cells/100 microliters/well (6-7.5×10^5 cells/10 ml/plate). The plates are then incubated at 37° C. in a 5% CO2 incubator.
Cells are examined under a microscope approximated 24 hours after seeding and prior to adding drugs. If counting and dilution were performed correctly, cells are 60-70% confluent and nearly all cells should attach and spread evenly in the well.
HCV replicon-containing cells are rinsed with once PBS once; 2 mls of trypsin are then added. Cells are incubated at 37° C. in a 5% CO2 incubator for 3-5 minutes. […]

Compound: COc1ccc2c(O[C@@H]3C[C@H]4C(=O)N[C@]5(C(=O)NS(=O)(=O)C6CC6)C[C@H]5/C=C\CCCC(=O)N[C@@H](CC(=O)N5CCCCC5)C(=O)N4C3)cc(-c3ccccc3)nc2c1 [Compound 15, (2R,6S,14aR,16aS,Z)-N-(cyclopropylsulfonyl)-2-(7-methoxy-2-phenylquinolin-4-yloxy)-5,8,16-trioxo-6-(2-oxo-2-(piperidin-1-yl)ethyl)-1,2,3,5,6,7,8,9,10,11,13a,14,14a,15,16,16a hexadecahydrocyclopropa[n]pyrrolo [2,1-c][1,4,7]triazacyclopentadecine-14a-carboxamide]
- EC50 (read-out: EC50): < 1000 nM

Compound: COc1ccc2c(O[C@@H]3C[C@H]4C(=O)N[C@]5(C(=O)NS(=O)(=O)C6CC6)C[C@H]5/C=C\CCCC(=O)N[C@@H](CC(=O)OC(C)(C)C)C(=O)N4C3)cc(-c3nc(C(C)C)cs3)nc2c1C [Compound 16, tert-butyl 2-((2R,6S,14aR,16aS,Z)-14a-(cyclopropylsulfonylcarbamoyl)-2-(2-(4-isopropyithiazol-2-yl)-7-methoxy-8-methylquinolin-4-yloxy)-5,8,16-trioxo-1,2,3,5,6,7,8,9,10,11,13a,14,14a,15,16,16a-hexadecahydrocyclopropa[n]pyrrolo [2,1-c][1,4,7]triazacyclopentadecin-6-yl)acetate]
- EC50: ≤ 10000 nM
- EC50 (read-out: EC50): < 1000 nM

Compound: COc1ccc2c(O[C@@H]3C[C@H]4C(=O)N[C@]5(C(=O)NS(=O)(=O)C6CC6)C[C@H]5/C=C\CCCC(=O)N[C@@H](CC(=O)N5CCCC(F)(F)C5)C(=O)N4C3)cc(-c3nc(C(C)C)cs3)nc2c1C [Compound 17, (2R,6S,14aR,16aS,Z)-N-(cyclopropylsulfonyl)-6-(2-(3,3-difluoropiperidin-1-yl)-2-oxoethyl)-2-(2-(4-isopropylthiazol-2-yl)-7-methoxy-8-methylquinolin-4-yloxy)-5,8,16-trioxo-1,2,3,5,6,7,8,9,10,11,13a,14,14a, 15,16,16a-hexadecahydrocyclopropa[n] pyrrolo[2,1-c][1,4,7]triazacyclopenta-decine-14a-carboxamide]
- EC50 (read-out: EC50): < 1000 nM

Compound: COc1ccc2c(O[C@@H]3C[C@H]4C(=O)N[C@]5(C(=O)NS(=O)(=O)C6CC6)C[C@H]5/C=C\CCCC(=O)N(C)CC(=O)N4C3)cc(-c3nc(C(C)C)cs3)nc2c1C [Compound 18, (2R,14aR,16aS,Z)-N-(cyclopropylsulfonyl)-2-(2-(4-isopropyithiazol-2-yl)-7-methoxy-8-methylquinolin-4-yloxy)-7-methyl-5,8,16-trioxo-1,2,3,5,6,7,8,9,10,11,13a,14,14a,15,16,16a-hexadecahydrocyclopropa[n]pyrrolo[2,1-c] [1,4,7]triazacyclopentadecine-14a-carboxamide]
- EC50 (read-out: EC50): < 1000 nM

Compound: COc1ccc2c(O[C@@H]3C[C@H]4C(=O)N[C@]5(C(=O)NS(=O)(=O)C6CC6)C[C@H]5/C=C\CCCC(=O)N[C@@H](C(C)(C)C)C(=O)N4C3)cc(-c3nc(C(C)C)cs3)nc2c1C [Compound 19, (2R,6S,14aR,16aS,Z)-6-tert-butyl-N-(cyclopropylsulfonyl)-2-(2-(4-isopropyithiazol-2-yl)-7-methoxy-8-methylquinolin-4-yloxy)-5,8,16-trioxo-1,2,3,5,6,7,8,9,10,11,13a,14,14a,15,16,16a-hexadecahydrocyclopropa[n]pyrrolo[2,1-c] [1,4,7]triazacyclopentadecine-14a-carboxamide]
- EC50 (read-out: EC50): 1000 to 10000 nM

Source: US8445430B2, “Cyclic carboxamide compounds and analogues thereof as of hepatitis C virus” (Achillion Pharmaceuticals, Inc., priority 2008, dated 2013)
